In patent publication US20130183435A1, “LOW TEMPERATURE PLASMA COATING FOR ANTI-BIOFILM FORMATION” (priority 2012, published 2013):

Tests used:
[1] = tested on: S. epidermidis RP62A biofilm; test: Susceptibility of bacterial cells in biofilm to 6 μg/ml antibiotic; format: cell-based; conditions: for reduction of bacterial count in biofilm: 8 hours
Description: Susceptibility of bacterial cells in biofilm to antibiotics was studied with a protocol established previously with modification. SS and Ti wafers (1×1 cm) were sterilized, coated with human plasma, and placed into the wells of 24-well microplates. Overnight culture of S. epidermidis was diluted 1:200 into fresh THY medium with 0.5% glucose. Aliquots (1 ml) of the cell suspensions were seeded into each well containing wafers and incubated at 37° C. for 16 hours. The wafers were gently washed three times with PBS to remove non-adherent bacterial cells. Then fresh Mueller Hinton broth (MHB) with and without 6 μg/ml vancomycin or ciprofloxacin was added into the wells containing wafers and cultured at 37° C. for 8 hours. The wafers were washed four times with PBS and then put into tubes with PBS. The biofilms on wafers were detached and disaggregated with ultrasonic bath treatment. The number of bacterial cells was quantified using the spread plate technique. Response to antibiotic treatment of a treated sample was defined as the percentage of untreated samples calculated by CFU numbers. Triplicate of wafers were used in each experiments and four independent experiments were performed for vacomycin and three independent experiments were performed for ciprofloxacin.

S. epidermidis biofilm = test: Antibiotic susceptibility assay of cells attached on wafers with different dose of ciprofloxacin; format: cell-based; conditions: for decrease of the number of bacteria recovered from biofilms / bacteria recovered: 128 μg/ml; for decrease of the number of bacteria recovered from biofilms: 48 hours
Description: Antibiotic susceptibility assay of S. epidermidis cells attached on wafers with different dose of antibiotics. Biofilm formation on the four groups of wafers in triplicate was performed as described in biofilm formation assay section. The wafers with biofilms were gently washed four times with PBS to remove non-adherent bacterial cells. Then fresh Mueller Hinton broth (MHB) with 0, 2, 8, 32, and 128 μg/ml ciprofloxacin (Sigma-Aldrich, St Louis, Mo.) was added into the wells containing wafers and cultured at 37° C. for 48 hours, with MHB medium with corresponding concentration of ciprofloxacin changed every 12 hours. The wafers were washed four times with PBS and bacteria numbers on the wafers were counted.

Compound | reduction of bacterial count in biofilm ([1]; TMS coated SS wafer) | reduction of bacterial count in biofilm ([1]; TMS coated Ti wafer) [%] | reduction of bacterial count in biofilm ([1]; uncoated SS wafer) [%] | reduction of bacterial count in biofilm ([1]; uncoated Ti wafer) [%] | number of bacteria, percent of bacteria on bare surfaces with neither TMS coating nor ciprofloxacin treatment (S. epidermidis biofilm; 8 μg/ml, TMS coated surfaces) | number of bacteria, percent of bacteria on TMS coated surfaces without ciprofloxacin treatment (S. epidermidis biofilm; 32 μg/ml, TMS coated surfaces) | decrease of the number of bacteria recovered from biofilms (S. epidermidis biofilm; uncoated SS surfaces) [%] | decrease of the number of bacteria recovered from biofilms (S. epidermidis biofilm; uncoated Ti surfaces) [%] | bacteria recovered (S. epidermidis biofilm; TMS coated SS surfaces) | bacteria recovered (S. epidermidis biofilm; TMS coated Ti surfaces) | MBC for biofilms (S. epidermidis biofilm; biofilms on TMS coated surfaces, MBC = 99.9% (3 log10 units) decrease) | MBC for bacteria in biofilms (S. epidermidis biofilm; biofilms on uncoated surfaces) | response of bacterial cells to antibiotic treatment ([1]; uncoated wafers)
O=C(O)c1cn(C2CC2)c2cc(N3CCNCC3)c(F)cc2c1=O [ciprofloxacin] | 99.4±0.1% | 96.8±1.4 | 86±1.2 | 81.8±3.2 | less than 0.01% | less than 0.1% | 99.6±0.07 | 99.3±0.1 | 177±80 | 444±217 | less than 32 μg/ml | more than 128 μg/ml | –
CN[C@H](CC(C)C)C(=O)N[C@H]1C(=O)N[C@@H](CC(N)=O)C(=O)N[C@H]2C(=O)N[C@H]3C(=O)N[C@H](C(=O)N[C@H](C(=O)O)c4cc(O)cc(O)c4-c4cc3ccc4O)[C@H](O)c3ccc(c(Cl)c3)Oc3cc2cc(c3O[C@@H]2O[C@H](CO)[C@@H](O)[C@H](O)[C@H]2O[C@H]2C[C@](C)(N)[C@H](O)[C@H](C)O2)Oc2ccc(cc2Cl)[C@H]1O [vacomycin, vancomycin] | about 83.8±4.3% | 91.9±1.6 | – | – | – | – | – | – | – | – | – | – | resistant
